The values that follow come from ChEMBL document CHEMBL5576038, “Design of a novel long-acting dual GLP-1/GIP receptor agonist” (Bioorg Med Chem, 2024).

Structures are written as SMILES. The source made the active and inactive calls. The calls are words filed in the database; no cut-off is given here. Where a SMILES comes first, the peptide text is derived from it. [ ]: non-standard residue; d: D form. The star is where a group is joined. X1 = N[C@@H](CCCCNC(=O)CC[C@H](NC(=O)CCCCCCCCCCCCCCCCCCC(=O)O)C(=O)O)C(=O)NCCCC[C@H](N)C(=O)N[C@@H](CCCCNC(=O)C*)C(=O)O; X4 = O=C(O)CCCCCCCCCCCCCCCCCCC(=O)NCCOCCOCC(=O)N[C@@H](CCC(=O)N[C@@H](CCC(=O)N[C@@H](CCCCNC(=O)C*)C(=O)O)C(=O)O)C(=O)O; X3 = O=C(O)CCCCCCCCCCCCCCCCC(=O)NCCOCCOCC(=O)N[C@@H](CCC(=O)N[C@@H](CCC(=O)N[C@@H](CCCCNC(=O)C*)C(=O)O)C(=O)O)C(=O)O; X7 = O=C(O)CCCCCCCCCCCCCCCCCCC(=O)NCCOCCOCC(=O)N[C@@H](CCC(=O)N[C@H](CCC(=O)N[C@H](CCCCNC(=O)C*)C(=O)O)C(=O)O)C(=O)O; X8 = O=C(O)CCCCCCCCCCCCCCCCC(=O)N[C@@H](CCC(=O)NCCOCCOCC(=O)NCCOCCOCC(=O)N[C@@H](CCCCNC(=O)C*)C(=O)O)C(=O)O; Aib = CC(C)(N)C(=O)O

The target in assay [1] is T1, Gastric inhibitory polypeptide receptor (Homo sapiens, UniProt P48546).
T1 sequence (P48546 whole entry): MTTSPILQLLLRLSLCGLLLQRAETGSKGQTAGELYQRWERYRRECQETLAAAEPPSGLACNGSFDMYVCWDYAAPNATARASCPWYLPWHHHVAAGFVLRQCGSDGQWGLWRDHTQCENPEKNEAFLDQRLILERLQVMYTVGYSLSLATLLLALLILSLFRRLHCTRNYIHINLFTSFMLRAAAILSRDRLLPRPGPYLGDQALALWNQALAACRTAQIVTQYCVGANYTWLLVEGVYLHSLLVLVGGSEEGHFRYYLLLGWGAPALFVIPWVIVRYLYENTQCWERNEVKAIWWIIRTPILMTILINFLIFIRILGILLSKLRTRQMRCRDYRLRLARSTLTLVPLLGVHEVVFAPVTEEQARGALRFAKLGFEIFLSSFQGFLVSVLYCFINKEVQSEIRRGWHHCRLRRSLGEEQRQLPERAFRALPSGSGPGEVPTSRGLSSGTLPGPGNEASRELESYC
The assay can be described thus: Agonist activity at human GIPR expressed in CHO cells assessed as increase in cAMP production incubated for 30 mins by Eu-cAMP tracer based microplate reader analysis. The assay is classed as functional, cell-based.

For assay [2], the target named is Glucagon-like peptide 1 receptor (Homo sapiens, UniProt P43220). Briefly: Agonist activity at human GLP-1R expressed in CHO cells assessed as increase in cAMP production incubated for 30 mins by Eu-cAMP tracer based microplate reader analysis. Format: functional, cell-based.
Glucagon-like peptide 1 receptor, sequence (P43220 whole entry): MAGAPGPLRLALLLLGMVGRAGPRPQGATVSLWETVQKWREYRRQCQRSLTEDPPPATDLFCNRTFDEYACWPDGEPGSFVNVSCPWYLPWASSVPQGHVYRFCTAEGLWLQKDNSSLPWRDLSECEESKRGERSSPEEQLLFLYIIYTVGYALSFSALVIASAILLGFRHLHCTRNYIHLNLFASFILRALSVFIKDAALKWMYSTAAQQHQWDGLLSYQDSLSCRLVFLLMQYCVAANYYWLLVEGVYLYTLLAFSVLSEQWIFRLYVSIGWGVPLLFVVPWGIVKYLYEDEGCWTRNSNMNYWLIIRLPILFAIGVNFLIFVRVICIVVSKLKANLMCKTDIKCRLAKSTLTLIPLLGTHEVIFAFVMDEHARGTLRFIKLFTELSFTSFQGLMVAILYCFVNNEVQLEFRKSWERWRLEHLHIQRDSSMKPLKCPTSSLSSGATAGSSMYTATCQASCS
The test system of a further assay is Mus musculus. Briefly: Glucose-lowering effect in male ICR mouse assessed as reduction in plasma glucose AUC (0 to 72 hrs) at 30 nmol/kg, sc pretreated for 71 hrs followed by […] administration and measured after 60 mins by oral glucose tolerance test. The assay is classed as functional, organism-based.

For the compound `CC(C)C[C@H](NC(=O)[C@H](CC(C)C)NC(=O)[C@H](Cc1c[nH]c2ccccc12)NC(=O)[C@H](CCC(N)=O)NC(=O)[C@@H](NC(=O)[C@H](Cc1ccccc1)NC(=O)[C@H](CC(C)C)NC(=O)[C@H](CSCC(=O)NCCCC[C@H](NC(=O)CC[C@H](NC(=O)CC[C@H](NC(=O)COCCOCCNC(=O)CCCCCCCCCCCCCCCCC(=O)O)C(=O)O)C(=O)O)C(=O)O)NC(=O)[C@H](C)NC(=O)[C@H](C)NC(=O)[C@H](CCC(N)=O)NC(=O)[C@H](CCCCN)NC(=O)[C@H](CCC(=O)O)NC(=O)[C@H](CC(C)C)NC(=O)[C@H](Cc1ccc(O)cc1)NC(=O)[C@H](Cc1ccc(O)cc1)NC(=O)[C@H](CO)NC(=O)[C@H](Cc1ccc(O)cc1)NC(=O)[C@H](CC(=O)O)NC(=O)[C@H](CO)NC(=O)[C@@H](NC(=O)[C@H](Cc1ccccc1)NC(=O)[C@@H](NC(=O)CNC(=O)[C@H](CCC(=O)O)NC(=O)C(C)(C)NC(=O)[C@@H](N)Cc1ccc(O)cc1)[C@@H](C)O)[C@@H](C)O)C(C)C)C(=O)N[C@@H](C)C(=O)NCC(=O)NCC(=O)N1CCC[C@H]1C(=O)N[C@@H](CO)C(=O)N[C@@H](CO)C(=O)NCC(=O)N[C@@H](C)C(=O)N1CCC[C@H]1C(=O)N1CCC[C@H]1C(=O)N1CCC[C@H]1C(=O)N[C@@H](CO)C(N)=O` (H-Y[Aib]EGTFTSDYSYYLEKQAAC(X3)LFVQWLLAGGPSSGAPPPS-NH2), the concentration giving a half-maximal response (EC50) in assay [1] worked out at 0.67 nM; in assay [2], 1.02 nM. Also, the result in the assay on Mus musculus was Active.

For `CC(C)C[C@H](NC(=O)[C@H](CC(C)C)NC(=O)[C@H](Cc1c[nH]c2ccccc12)NC(=O)[C@H](CCC(N)=O)NC(=O)[C@@H](NC(=O)[C@H](Cc1ccccc1)NC(=O)[C@H](CC(C)C)NC(=O)[C@H](CCCCN)NC(=O)[C@H](C)NC(=O)[C@H](C)NC(=O)[C@H](CCC(N)=O)NC(=O)[C@H](CSCC(=O)NCCCC[C@H](NC(=O)[C@@H](N)CCCCNC(=O)[C@@H](N)CCCCNC(=O)CC[C@H](NC(=O)CCCCCCCCCCCCCCCCCCC(=O)O)C(=O)O)C(=O)O)NC(=O)[C@H](CCC(=O)O)NC(=O)[C@H](CC(C)C)NC(=O)[C@H](Cc1ccc(O)cc1)NC(=O)[C@H](Cc1ccc(O)cc1)NC(=O)[C@H](CO)NC(=O)[C@H](Cc1ccc(O)cc1)NC(=O)[C@H](CC(=O)O)NC(=O)[C@H](CO)NC(=O)[C@@H](NC(=O)[C@H](Cc1ccccc1)NC(=O)[C@@H](NC(=O)CNC(=O)[C@H](CCC(=O)O)NC(=O)C(C)(C)NC(=O)[C@@H](N)Cc1ccc(O)cc1)[C@@H](C)O)[C@@H](C)O)C(C)C)C(=O)N[C@@H](C)C(=O)NCC(=O)NCC(=O)N1CCC[C@H]1C(=O)N[C@@H](CO)C(=O)N[C@@H](CO)C(=O)NCC(=O)N[C@@H](C)C(=O)N1CCC[C@H]1C(=O)N1CCC[C@H]1C(=O)N1CCC[C@H]1C(=O)N[C@@H](CO)C(N)=O` (H-Y[Aib]EGTFTSDYSYYLEC(X1)QAAKLFVQWLLAGGPSSGAPPPS-NH2), the concentration giving a half-maximal response (EC50) in assay [1] stood at 0.012 nM; in assay [2], 0.52 nM. For the same compound, the outcome with Mus musculus was Active.

Consider `CC(C)C[C@H](NC(=O)[C@H](CC(C)C)NC(=O)[C@H](Cc1c[nH]c2ccccc12)NC(=O)[C@H](CCC(N)=O)NC(=O)[C@@H](NC(=O)[C@H](Cc1ccccc1)NC(=O)[C@H](CC(C)C)NC(=O)[C@H](CCCCN)NC(=O)[C@H](C)NC(=O)[C@H](C)NC(=O)[C@H](CCC(N)=O)NC(=O)[C@H](CCCCN)NC(=O)[C@H](CCC(=O)O)NC(=O)[C@H](CC(C)C)NC(=O)[C@H](CSCC(=O)NCCCC[C@H](NC(=O)CC[C@H](NC(=O)CC[C@H](NC(=O)COCCOCCNC(=O)CCCCCCCCCCCCCCCCCCC(=O)O)C(=O)O)C(=O)O)C(=O)O)NC(=O)[C@H](Cc1ccc(O)cc1)NC(=O)[C@H](CO)NC(=O)[C@H](Cc1ccc(O)cc1)NC(=O)[C@H](CC(=O)O)NC(=O)[C@H](CO)NC(=O)[C@@H](NC(=O)[C@H](Cc1ccccc1)NC(=O)[C@@H](NC(=O)CNC(=O)[C@H](CCC(=O)O)NC(=O)C(C)(C)NC(=O)[C@@H](N)Cc1ccc(O)cc1)[C@@H](C)O)[C@@H](C)O)C(C)C)C(=O)N[C@@H](C)C(=O)NCC(=O)NCC(=O)N1CCC[C@H]1C(=O)N[C@@H](CO)C(=O)N[C@@H](CO)C(=O)NCC(=O)N[C@@H](C)C(=O)N1CCC[C@H]1C(=O)N1CCC[C@H]1C(=O)N1CCC[C@H]1C(=O)N[C@@H](CO)C(N)=O` (H-Y[Aib]EGTFTSDYSYC(X4)LEKQAAKLFVQWLLAGGPSSGAPPPS-NH2), for which the values for the EC50 in assay [1] and in assay [2] were 0.064 nM and 0.25 nM, respectively. For the same compound, the outcome in the assay with Mus musculus was Active.

For `CC(C)C[C@H](NC(=O)[C@H](CC(C)C)NC(=O)[C@H](Cc1c[nH]c2ccccc12)NC(=O)[C@H](CSCC(=O)NCCCC[C@H](NC(=O)CC[C@H](NC(=O)CC[C@H](NC(=O)COCCOCCNC(=O)CCCCCCCCCCCCCCCCCCC(=O)O)C(=O)O)C(=O)O)C(=O)O)NC(=O)[C@@H](NC(=O)[C@H](Cc1ccccc1)NC(=O)[C@H](CC(C)C)NC(=O)[C@H](CCCCN)NC(=O)[C@H](C)NC(=O)[C@H](C)NC(=O)[C@H](CCC(N)=O)NC(=O)[C@H](CCCCN)NC(=O)[C@H](CCC(=O)O)NC(=O)[C@H](CC(C)C)NC(=O)[C@H](Cc1ccc(O)cc1)NC(=O)[C@H](Cc1ccc(O)cc1)NC(=O)[C@H](CO)NC(=O)[C@H](Cc1ccc(O)cc1)NC(=O)[C@H](CC(=O)O)NC(=O)[C@H](CO)NC(=O)[C@@H](NC(=O)[C@H](Cc1ccccc1)NC(=O)[C@@H](NC(=O)CNC(=O)[C@H](CCC(=O)O)NC(=O)C(C)(C)NC(=O)[C@@H](N)Cc1ccc(O)cc1)[C@@H](C)O)[C@@H](C)O)C(C)C)C(=O)N[C@@H](C)C(=O)NCC(=O)NCC(=O)N1CCC[C@H]1C(=O)N[C@@H](CO)C(=O)N[C@@H](CO)C(=O)NCC(=O)N[C@@H](C)C(=O)N1CCC[C@H]1C(=O)N1CCC[C@H]1C(=O)N1CCC[C@H]1C(=O)N[C@@H](CO)C(N)=O` (H-Y[Aib]EGTFTSDYSYYLEKQAAKLFVC(X4)WLLAGGPSSGAPPPS-NH2), the concentration for a half-maximal effect (EC50) in assay [1] was found to be 1.12 nM; in assay [2], 0.44 nM. Further, the result in the assay with Mus musculus was Active.

Turning to `CC(C)C[C@H](NC(=O)[C@H](CC(C)C)NC(=O)[C@H](Cc1c[nH]c2ccccc12)NC(=O)[C@H](CCC(N)=O)NC(=O)[C@@H](NC(=O)[C@H](Cc1ccccc1)NC(=O)[C@H](CC(C)C)NC(=O)[C@H](CCCCN)NC(=O)[C@H](C)NC(=O)[C@H](C)NC(=O)[C@H](CCC(N)=O)NC(=O)[C@H](CCCCN)NC(=O)[C@H](CCC(=O)O)NC(=O)[C@H](CC(C)C)NC(=O)[C@H](CSCC(=O)NCCCC[C@H](NC(=O)COCCOCCNC(=O)COCCOCCNC(=O)CC[C@H](NC(=O)CCCCCCCCCCCCCCCCC(=O)O)C(=O)O)C(=O)O)NC(=O)[C@H](Cc1ccc(O)cc1)NC(=O)[C@H](CO)NC(=O)[C@H](Cc1ccc(O)cc1)NC(=O)[C@H](CC(=O)O)NC(=O)[C@H](CO)NC(=O)[C@@H](NC(=O)[C@H](Cc1ccccc1)NC(=O)[C@@H](NC(=O)CNC(=O)[C@H](CCC(=O)O)NC(=O)C(C)(C)NC(=O)[C@@H](N)Cc1ccc(O)cc1)[C@@H](C)O)[C@@H](C)O)C(C)C)C(=O)N[C@@H](C)C(=O)NCC(=O)NCC(=O)N1CCC[C@H]1C(=O)N[C@@H](CO)C(=O)N[C@@H](CO)C(=O)NCC(=O)N[C@@H](C)C(=O)N1CCC[C@H]1C(=O)N1CCC[C@H]1C(=O)N1CCC[C@H]1C(=O)N[C@@H](CO)C(N)=O` (H-Y[Aib]EGTFTSDYSYC(X8)LEKQAAKLFVQWLLAGGPSSGAPPPS-NH2), the EC50 was found to be 1.31 nM in assay [1] and 1.75 nM in assay [2].

`CC(C)C[C@H](NC(=O)[C@H](CC(C)C)NC(=O)[C@H](Cc1c[nH]c2ccccc12)NC(=O)[C@H](CCC(N)=O)NC(=O)[C@@H](NC(=O)[C@H](Cc1ccccc1)NC(=O)[C@H](CC(C)C)NC(=O)[C@H](CCCCN)NC(=O)[C@H](C)NC(=O)[C@H](C)NC(=O)[C@H](CCC(N)=O)NC(=O)[C@H](CSCC(=O)NCCCC[C@@H](NC(=O)CC[C@@H](NC(=O)CC[C@H](NC(=O)COCCOCCNC(=O)CCCCCCCCCCCCCCCCCCC(=O)O)C(=O)O)C(=O)O)C(=O)O)NC(=O)[C@H](CCC(=O)O)NC(=O)[C@H](CC(C)C)NC(=O)[C@H](Cc1ccc(O)cc1)NC(=O)[C@H](Cc1ccc(O)cc1)NC(=O)[C@H](CO)NC(=O)[C@H](Cc1ccc(O)cc1)NC(=O)[C@H](CC(=O)O)NC(=O)[C@H](CO)NC(=O)[C@@H](NC(=O)[C@H](Cc1ccccc1)NC(=O)[C@@H](NC(=O)CNC(=O)[C@H](CCC(=O)O)NC(=O)C(C)(C)NC(=O)[C@@H](N)Cc1ccc(O)cc1)[C@@H](C)O)[C@@H](C)O)C(C)C)C(=O)N[C@@H](C)C(=O)NCC(=O)NCC(=O)N1CCC[C@H]1C(=O)N[C@@H](CO)C(=O)N[C@@H](CO)C(=O)NCC(=O)N[C@@H](C)C(=O)N1CCC[C@H]1C(=O)N1CCC[C@H]1C(=O)N1CCC[C@H]1C(=O)N[C@@H](CO)C(N)=O` (H-Y[Aib]EGTFTSDYSYYLEC(X7)QAAKLFVQWLLAGGPSSGAPPPS-NH2): the EC50 in assay [1] (cho) stood at 0.2 nM; in assay [2] (cho), 0.51 nM.
